We go through one compound from ChEMBL document CHEMBL4613278, “Pyridine Derivative of the Natural Alkaloid Berberine as Human Telomeric G4-DNA Binder: A Solution and Solid-State Study” (ACS Med Chem Lett, 2020).

Structures are written as SMILES. Activity calls are given as the source filed them. No cut-off for these calls is given here.

What all share (format): nucleic-acid assay
The subject of test [1] is Quadruplex DNA. Nature of the test: Binding affinity to human Tel12 G4 quadruplex DNA assessed as decrease in intensity of positive peaks measured after 5 mins by circular dichroism method. Background: Circular dichroism is widely used to follow secondary structure.
Test [2] has as its system Quadruplex DNA. Nature of the test: Binding affinity to human Tel23 G4 quadruplex DNA assessed as decrease in intensity of positive peaks measured after 5 mins by circular dichroism method.
Test [3] relates to Quadruplex DNA. The test is described as follows: Binding affinity to human Tel12 G4 quadruplex DNA assessed as decrease in absorption maxima at 338 and 413 nm at 3 uM by spectrophotometric titration analysis.
Test [4] concerns Quadruplex DNA. The test is described as follows: Binding affinity to human Tel23 G4 quadruplex DNA assessed as decrease in absorption maxima at 338 and 413 nm at 3 uM by spectrophotometric titration analysis.
The test system of test [5] is Quadruplex DNA. Nature of the test: Binding affinity to human Tel12 G4 quadruplex DNA assessed as increase in fluorescence intensity at 1 uM by spectrofluorimetric titration analysis.
Test [6] relates to Quadruplex DNA. The test is described as follows: Binding affinity to human Tel23 G4 quadruplex DNA assessed as increase in fluorescence intensity at 1 uM by spectrofluorimetric titration analysis.
Test [7] deals with Quadruplex DNA. The test is described as follows: Binding affinity to human Tel12 G4 quadruplex DNA assessed as quadruplex DNA stabilization by measuring increase in melting temperature at compound:quadruplex DNA ratio of 1:1 by thermal melting studies.
In test [8] the test system is Quadruplex DNA. The test is described as follows: Binding affinity to human Tel23 G4 quadruplex DNA assessed as quadruplex DNA stabilization by measuring increase in melting temperature at compound:quadruplex DNA ratio of 1:1 by thermal melting studies.
For test [9], the system named is Quadruplex DNA. The test is described as follows: Binding affinity to human Tel12 G4 quadruplex DNA at 298.15 K by isothermal titration calorimetric analysis.
The subject of test [10] is Quadruplex DNA. Nature of the test: Binding affinity to human Tel23 G4 quadruplex DNA at 298.15 K by isothermal titration calorimetric analysis.
The subject of test [11] is Quadruplex DNA. Nature of the test: Binding affinity to human Tel12 G4 quadruplex DNA assessed as change in enthalpy at 298.15 K by isothermal titration calorimetric analysis.
Test [12] deals with Quadruplex DNA. Nature of the test: Binding affinity to human Tel23 G4 quadruplex DNA assessed as change in enthalpy at 298.15 K by isothermal titration calorimetric analysis. For orientation: ITC needs no label: the signal is the heat of the interaction.
Test [13] relates to Quadruplex DNA. The test is described as follows: Binding affinity to human Tel12 G4 quadruplex DNA assessed as gibbs free energy change at 298.15 K by isothermal titration calorimetric analysis.
Test [14] deals with Quadruplex DNA. The test is described as follows: Binding affinity to human Tel23 G4 quadruplex DNA assessed as gibbs free energy change at 298.15 K by isothermal titration calorimetric analysis.
Test [15] deals with Quadruplex DNA. The test is described as follows: Binding affinity to human Tel12 G4 quadruplex DNA assessed as change in entropy at 298.15 K by isothermal titration calorimetric analysis.
In test [16] the test system is Quadruplex DNA. The test is described as follows: Binding affinity to human Tel23 G4 quadruplex DNA assessed as change in entropy at 298.15 K by isothermal titration calorimetric analysis.
Test [17] has as its system Quadruplex DNA. Nature of the test: Binding affinity to human Tel12 G4 quadruplex DNA assessed as sharp isosbestic point at 351 and 433 nm at 3 uM by spectrophotometric titration analysis.
In test [18] the test system is Quadruplex DNA. The test is described as follows: Binding affinity to human Tel23 G4 quadruplex DNA assessed as sharp isosbestic point at 350, 375 and 430 nm at 3 uM by spectrophotometric titration analysis.

For `COc1ccc2c(CCCc3ccncc3)c3[n+](cc2c1OC)CCc1cc2c(cc1-3)OCO2`, the outcome in the test on Quadruplex DNA [1], with Quadruplex DNA [2], in the test with Quadruplex DNA [3], with Quadruplex DNA [4], with Quadruplex DNA [5] and with Quadruplex DNA [6] was Active. Besides, the result in the test with Quadruplex DNA [17] and in the test on Quadruplex DNA [18] was Active. In addition, the values for the deltaTm with Quadruplex DNA [7] and in the test with Quadruplex DNA [8] were 15 K and 2 K, respectively. Besides, the K in the test with Quadruplex DNA [9] was determined as 3.16 ×10⁵ /M; in the test on Quadruplex DNA [10], 8.15 ×10⁴ /M. Also, the deltaH was -7.08 kcal/mol with Quadruplex DNA [11] and -8.53 kcal/mol with Quadruplex DNA [12]. The deltaG is -7.38 kcal/mol in the test on Quadruplex DNA [13] and -6.55 kcal/mol with Quadruplex DNA [14]. Moreover, the values for the TdeltaS in the test on Quadruplex DNA [15] and in the test with Quadruplex DNA [16] were 0.3 kcal/mol and -1.97 kcal/mol, respectively.
